Assays:
[1] = target: T1, Serine/threonine-protein kinase pim-1 (Homo sapiens, UniProt P11309); assay: Inhibition of PIM1
Target sequence in this assay (P11309 whole entry): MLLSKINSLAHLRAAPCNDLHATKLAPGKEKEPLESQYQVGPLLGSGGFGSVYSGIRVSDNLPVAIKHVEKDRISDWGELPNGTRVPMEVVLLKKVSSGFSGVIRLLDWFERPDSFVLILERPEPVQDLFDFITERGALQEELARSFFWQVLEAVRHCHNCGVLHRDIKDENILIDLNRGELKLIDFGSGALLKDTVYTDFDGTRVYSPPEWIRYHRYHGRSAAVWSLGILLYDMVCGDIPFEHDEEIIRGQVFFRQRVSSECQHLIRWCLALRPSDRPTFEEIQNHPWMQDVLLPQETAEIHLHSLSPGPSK

[2] = target: Dual specificity tyrosine-phosphorylation-regulated kinase 1A (Mus musculus, UniProt Q61214); assay: Inhibition of mouse DYRK1A expressed in Escherichia coli after 20 mins
[3] = target: T2, Dual specificity tyrosine-phosphorylation-regulated kinase 2 (Homo sapiens, UniProt Q92630); assay: Inhibition of DYRK2
T2 sequence (Q92630 whole entry): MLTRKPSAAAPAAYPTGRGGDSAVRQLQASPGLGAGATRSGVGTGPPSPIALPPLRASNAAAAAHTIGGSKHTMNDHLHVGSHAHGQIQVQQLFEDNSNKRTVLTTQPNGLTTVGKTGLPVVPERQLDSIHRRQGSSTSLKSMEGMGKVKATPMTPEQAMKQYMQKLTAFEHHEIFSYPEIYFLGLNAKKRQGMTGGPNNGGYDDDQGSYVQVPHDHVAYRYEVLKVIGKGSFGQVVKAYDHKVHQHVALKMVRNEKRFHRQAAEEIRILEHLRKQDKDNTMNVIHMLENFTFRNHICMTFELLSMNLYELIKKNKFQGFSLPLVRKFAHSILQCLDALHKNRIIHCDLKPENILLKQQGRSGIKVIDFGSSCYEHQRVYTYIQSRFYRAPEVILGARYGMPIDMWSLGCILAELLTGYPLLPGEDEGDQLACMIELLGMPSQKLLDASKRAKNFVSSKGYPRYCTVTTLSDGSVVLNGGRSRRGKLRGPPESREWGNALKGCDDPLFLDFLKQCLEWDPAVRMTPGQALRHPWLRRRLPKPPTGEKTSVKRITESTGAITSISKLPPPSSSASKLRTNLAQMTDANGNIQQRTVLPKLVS

[4] = target: Dual specificity protein kinase CLK1 (Homo sapiens, UniProt P49759); assay: Inhibition of CLK1
Chain of Dual specificity protein kinase CLK1 (P49759 whole entry): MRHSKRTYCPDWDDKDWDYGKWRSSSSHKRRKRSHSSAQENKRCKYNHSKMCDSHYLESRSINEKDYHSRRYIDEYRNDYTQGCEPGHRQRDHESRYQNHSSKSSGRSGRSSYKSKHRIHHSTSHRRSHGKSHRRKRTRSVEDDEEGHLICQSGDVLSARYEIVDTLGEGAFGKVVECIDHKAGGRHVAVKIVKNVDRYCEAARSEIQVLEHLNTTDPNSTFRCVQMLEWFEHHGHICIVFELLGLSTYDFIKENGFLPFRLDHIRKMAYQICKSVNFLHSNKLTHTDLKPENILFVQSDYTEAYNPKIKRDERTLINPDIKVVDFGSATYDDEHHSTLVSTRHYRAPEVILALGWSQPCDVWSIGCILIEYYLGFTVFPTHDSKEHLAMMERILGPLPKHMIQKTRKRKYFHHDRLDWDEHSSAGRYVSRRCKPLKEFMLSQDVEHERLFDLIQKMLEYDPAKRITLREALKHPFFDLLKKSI

[5] = target: Cyclin-dependent kinase 5/CDK5 activator 1 (Homo sapiens, UniProt Q00535); assay: Inhibition of CDK5/P25; format: protein-complex assay
Chain of Cyclin-dependent kinase 5/CDK5 activator 1 (Q00535 whole entry, canonical isoform): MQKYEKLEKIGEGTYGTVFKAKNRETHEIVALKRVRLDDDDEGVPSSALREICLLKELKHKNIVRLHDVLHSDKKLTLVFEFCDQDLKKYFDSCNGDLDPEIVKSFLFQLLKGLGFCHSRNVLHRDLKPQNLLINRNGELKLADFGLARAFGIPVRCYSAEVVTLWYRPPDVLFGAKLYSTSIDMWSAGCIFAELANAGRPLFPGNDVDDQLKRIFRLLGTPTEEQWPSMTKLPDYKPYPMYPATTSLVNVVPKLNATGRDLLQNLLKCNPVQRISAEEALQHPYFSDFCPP
Chain of Cyclin-dependent kinase 5/CDK5 activator 1 (Q15078 whole entry, further chain, canonical isoform): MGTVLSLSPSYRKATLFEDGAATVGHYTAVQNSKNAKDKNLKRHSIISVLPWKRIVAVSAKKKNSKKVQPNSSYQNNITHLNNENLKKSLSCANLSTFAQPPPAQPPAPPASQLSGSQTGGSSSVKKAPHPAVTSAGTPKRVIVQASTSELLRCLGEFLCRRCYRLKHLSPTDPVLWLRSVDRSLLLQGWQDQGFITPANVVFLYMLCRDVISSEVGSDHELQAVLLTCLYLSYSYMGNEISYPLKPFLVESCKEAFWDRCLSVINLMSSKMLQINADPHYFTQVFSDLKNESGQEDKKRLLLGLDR

[6] = target: Casein kinase I isoform alpha (Homo sapiens, UniProt P48729); assay: Inhibition of CK1
Chain of Casein kinase I isoform alpha (P48729 whole entry, canonical isoform): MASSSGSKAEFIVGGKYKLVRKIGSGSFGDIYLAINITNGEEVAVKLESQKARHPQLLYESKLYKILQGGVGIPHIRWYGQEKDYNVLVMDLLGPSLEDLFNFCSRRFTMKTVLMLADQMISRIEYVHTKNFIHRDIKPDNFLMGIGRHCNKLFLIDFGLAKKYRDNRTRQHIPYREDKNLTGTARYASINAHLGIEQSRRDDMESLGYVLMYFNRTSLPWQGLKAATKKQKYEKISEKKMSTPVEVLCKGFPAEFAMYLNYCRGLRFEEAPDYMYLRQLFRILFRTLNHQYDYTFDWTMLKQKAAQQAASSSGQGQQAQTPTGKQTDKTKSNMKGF

CDK1/Cyclin A = CDK1/Cyclin A (Homo sapiens, UniProt P06493); assay: Inhibition of CDK1/Cyclin A; format: protein-complex assay
Chain of CDK1/Cyclin A (P06493 whole entry): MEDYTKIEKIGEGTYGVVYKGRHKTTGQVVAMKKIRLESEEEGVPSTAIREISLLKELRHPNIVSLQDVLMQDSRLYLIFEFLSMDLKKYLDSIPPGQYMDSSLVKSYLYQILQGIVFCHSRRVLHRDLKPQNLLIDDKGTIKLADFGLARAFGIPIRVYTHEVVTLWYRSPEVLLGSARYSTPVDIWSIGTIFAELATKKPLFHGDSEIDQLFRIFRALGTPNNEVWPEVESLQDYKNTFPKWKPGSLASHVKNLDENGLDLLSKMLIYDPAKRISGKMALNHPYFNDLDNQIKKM
Chain of CDK1/Cyclin A (P20248 whole entry, further chain): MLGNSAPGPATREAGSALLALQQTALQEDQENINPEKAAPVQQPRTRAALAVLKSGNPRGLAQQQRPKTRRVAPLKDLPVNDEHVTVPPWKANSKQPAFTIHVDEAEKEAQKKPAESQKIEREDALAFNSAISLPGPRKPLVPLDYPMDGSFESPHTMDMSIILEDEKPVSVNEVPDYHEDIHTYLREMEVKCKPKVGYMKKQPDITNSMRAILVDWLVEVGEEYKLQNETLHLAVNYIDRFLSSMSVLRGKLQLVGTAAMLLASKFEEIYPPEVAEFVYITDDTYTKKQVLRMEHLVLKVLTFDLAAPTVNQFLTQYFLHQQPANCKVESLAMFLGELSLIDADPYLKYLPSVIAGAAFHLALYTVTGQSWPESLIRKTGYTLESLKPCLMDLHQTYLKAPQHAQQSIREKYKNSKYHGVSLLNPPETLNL

[7] = target: Glycogen synthase kinase-3 (Homo sapiens, UniProt P49840+P49841); assay: Inhibition of GSK3alpha/beta; format: protein assay
[8] = target: Cyclin-dependent kinase 1/cyclin B1 (Homo sapiens, UniProt P06493); assay: Inhibition of CDK1/cyclin B; format: protein-complex assay
Chain of Cyclin-dependent kinase 1/cyclin B1 (P06493 whole entry): as the sequence (P06493 whole entry) above
Chain of Cyclin-dependent kinase 1/cyclin B1 (P14635 whole entry, further chain): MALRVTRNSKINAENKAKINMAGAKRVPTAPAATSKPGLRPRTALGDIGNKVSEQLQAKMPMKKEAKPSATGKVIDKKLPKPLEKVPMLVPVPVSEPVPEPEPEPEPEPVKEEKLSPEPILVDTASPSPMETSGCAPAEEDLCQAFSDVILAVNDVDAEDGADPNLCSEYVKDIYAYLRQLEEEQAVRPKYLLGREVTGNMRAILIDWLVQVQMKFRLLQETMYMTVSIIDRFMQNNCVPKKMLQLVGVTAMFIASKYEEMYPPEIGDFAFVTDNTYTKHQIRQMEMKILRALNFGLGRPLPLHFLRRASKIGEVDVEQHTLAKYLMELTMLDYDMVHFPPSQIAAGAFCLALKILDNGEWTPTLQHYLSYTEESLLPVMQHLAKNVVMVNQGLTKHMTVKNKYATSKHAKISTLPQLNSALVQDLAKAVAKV

[9] = target: T1, Serine/threonine-protein kinase pim-1; assay: Inhibition of PIM1 at 10 uM
Target sequence in this assay (P11309 whole entry, looked up): as the sequence (P11309 whole entry) above

| Compound | IC50 [1] [µM] | inhibition [9] [%] | other results |
| --- | --- | --- | --- |
| O=C(NNc1ccccc1)c1ccc2ccc(C(=O)O)c(O)c2n1 | 5.1 | – | – |
| O=C(NNc1ccc([N+](=O)[O-])cc1[N+](=O)[O-])c1ccc2ccc(C(=O)O)c(O)c2n1 | 3 | – | – |
| O=C(O)c1ccc2ccc(/C=C/c3cc(O)cc(O)c3)nc2c1O | 0.4 | – | – |
| O=C(O)c1ccc2ccc(/C=C/c3ccc(O)cc3)nc2c1O | 0.7 | – | – |
| O=C(O)c1cc(/C=C/c2ccc3ccc(C(=O)O)c(O)c3n2)ccc1O | 3.1 | – | – |
| O=C(NCc1ccc(O)cc1O)c1ccc2ccc(C(=O)O)c(O)c2n1 | 0.2 | – | IC50 [2]: 4.5 µM; IC50 [3]: 6.3 µM; IC50 [4]: > 10 µM; IC50 [5]: > 10 µM; IC50 [6]: > 10 µM; IC50 (CDK1/Cyclin A): > 10 µM; IC50 [7]: > 10 µM; IC50 [8]: > 10 µM |
| O=C(O)c1cccc2ccc(/C=C/c3ccc(O)c(O)c3)nc12 | > 10 | > 50 | – |
| COc1ccc(CNC(=O)Nc2ccc3ccc(C(=O)O)c(O)c3n2)cc1 | 2 | – | – |
| Nc1ccc(/C=C/c2ccc3ccc(C(=O)O)c(O)c3n2)cc1 | 4 | – | – |
| COc1cc(/C=C/c2ccc3ccc(C(=O)O)c(O)c3n2)cc(O)c1O | 3.1 | – | – |
| O=C(O)c1ccc2ccc(/C=C/c3ccc(O)cc3O)nc2c1O | 0.5 | – | – |
| COc1cc(NC(=O)c2ccc3ccc(C(=O)O)c(O)c3n2)cc(O)c1O | 1 | – | – |
| O=C(O)c1ccc2ccc(/C=C/c3ccccc3)nc2c1O | 3.2 | – | – |
| Oc1ccc(/C=C/c2ccc3cccc(O)c3n2)cc1O | > 10 | > 50 | – |
| O=C(O)c1ccc2ccc(/C=C/c3cc(O)c(O)c(O)c3)nc2c1O | 5.5 | – | – |
| O=C(NCc1cc(O)cc(O)c1)c1ccc2ccc(C(=O)O)c(O)c2n1 | 0.6 | – | – |
| O=C(NCc1ccc(O)c(O)c1)c1ccc2c(Cl)cc(Cl)c(O)c2n1 | > 10 | > 50 | – |
| O=C(NCc1ccc(O)cc1)c1ccc2cccc(C(=O)O)c2n1 | > 10 | > 50 | – |
| O=C(NCc1ccc(O)c(O)c1)Nc1ccc2ccc(C(=O)O)c(O)c2n1 | 0.5 | – | – |
| O=C(O)c1ccc2ccc(/C=C/c3cccc(O)c3O)nc2c1O | 7 | – | – |
| COc1cc(CNC(=O)c2ccc3ccc(C(=O)O)c(O)c3n2)cc(O)c1O | 3.3 | – | – |

| Compound | IC50 [1] [µM] | inhibition [9] [%] | other results |
| --- | --- | --- | --- |
| O=C(O)c1ccc2ccc(/C=C/c3cc(Br)c(O)c(Br)c3)nc2c1O | 2.1 | – | – |
| O=C(Nc1ccc(O)c(O)c1)Nc1ccc2ccc(C(=O)O)c(O)c2n1 | 1 | – | – |
| Cc1ccc2ccc(C(=O)O)c(O)c2n1 | > 10 | > 50 | – |
| COc1cc(/C=C/c2ccc3ccc(C(=O)O)c(O)c3n2)cc(OC)c1O | 2.5 | – | – |
| O=C(NCc1ccc(O)c(O)c1)c1ccc2ccc(C(=O)O)c(O)c2n1 | 2.1 | > 50 | – |
| COc1cc(/C=C/c2ccc3ccc(C(=O)O)c(O)c3n2)cc([N+](=O)[O-])c1O | 2.8 | – | – |
| O=C(O)c1ccc2ccc(/C=C/c3ccc4c(c3)OCO4)nc2c1O | 3 | – | – |
| O=C(O)c1ccc2ccc(/C=C/c3ccc(O)c(O)c3)nc2c1O | 1.7 | > 50 | – |
| COc1ccc(/C=C/c2ccc3ccc(C(=O)O)c(O)c3n2)cc1O | 0.5 | – | IC50 [2]: 1.3 µM; IC50 [3]: 1.1 µM; IC50 [4]: 8.3 µM; IC50 [5]: > 10 µM; IC50 [6]: > 10 µM; IC50 (CDK1/Cyclin A): > 10 µM; IC50 [7]: > 10 µM; IC50 [8]: > 10 µM |
| O=C(O)c1ccc2ccc(/C=C/c3ccc([N+](=O)[O-])cc3)nc2c1O | 3.4 | – | – |
| O=C(O)c1ccc2ccc(/C=C/c3ccc(F)c(F)c3)nc2c1O | 4.5 | – | – |
| COc1cc(/C=C/c2ccc3ccc(C(=O)O)c(O)c3n2)ccc1O | 2 | – | – |
| Cc1ccc2cccc(C(=O)O)c2n1 | > 10 | > 50 | – |
| O=C(O)c1ccc(O)c2nc(/C=C/c3ccc(O)c(O)c3)ccc12 | > 10 | < 50 | – |
| O=C(NCc1cccc(O)c1O)c1ccc2ccc(C(=O)O)c(O)c2n1 | 2.8 | – | – |
| Cc1ccc2c(-c3ccccc3)cc(C(=O)O)c(O)c2n1 | > 10 | > 50 | – |
| Cc1ccc2cccc(NS(C)(=O)=O)c2n1 | > 10 | > 50 | – |
| COc1cc(/C=C/c2ccc3ccc(C(=O)O)c(O)c3n2)cc(Cl)c1O | 4.5 | – | – |
| O=C(c1ccncc1)c1ccc2ccc(/C=C/c3ccc(O)c(O)c3)nc2c1O | > 10 | < 50 | – |
| O=C(O)c1ccc2ccc(CCc3ccc(O)c(O)c3)nc2c1O | 5 | > 50 | – |

Source: ChEMBL document CHEMBL1157927, “Identification and structure-activity relationship of 8-hydroxy-quinoline-7-carboxylic acid derivatives as inhibitors of Pim-1 kinase” (Bioorg Med Chem Lett, 2010)
